Measurements published in PubChem BioAssay (NCI).
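Assay format: 96-well plates, 48-hour exposure. GI50 = concentration required for 50% inhibition of growth. The concentration for full growth arrest is given as TGI.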

Columns and labels:
Experiment in all cases: growth of human tumour cells (NCI), 48 h
SF-295 CNS = tested on: SF-295 CNS
HOP-92 NSCLC = tested on: HOP-92 NSCLC
UO-31 renal = tested on: UO-31 renal
OVCAR-4 ovarian = tested on: OVCAR-4 ovarian
UACC-257 melanoma = tested on: UACC-257 melanoma
COLO 205 colon = tested on: COLO 205 colon
SNB-19 CNS = tested on: SNB-19 CNS
SK-MEL-28 melanoma = tested on: SK-MEL-28 melanoma
NCI-H226 lung = tested on: NCI-H226 lung
SR leukemia = tested on: SR leukemia

| Structure (SMILES) | TGI (SF-295 CNS) [µM] | TGI (HOP-92 NSCLC) [µM] | TGI (UO-31 renal) [µM] | TGI (OVCAR-4 ovarian) [µM] | TGI (UACC-257 melanoma) [µM] | TGI (COLO 205 colon) [µM] | TGI (SNB-19 CNS) [µM] | TGI (SK-MEL-28 melanoma) [µM] | TGI (NCI-H226 lung) [µM] | TGI (SR leukemia) [µM] | GI50 (SF-295 CNS) [µM] | GI50 (HOP-92 NSCLC) [µM] | GI50 (UO-31 renal) [µM] | GI50 (OVCAR-4 ovarian) [µM] | GI50 (UACC-257 melanoma) [µM] | GI50 (COLO 205 colon) [µM] | GI50 (SNB-19 CNS) [µM] | GI50 (SK-MEL-28 melanoma) [µM] | GI50 (NCI-H226 lung) [µM] | GI50 (SR leukemia) [µM] |
| --- | --- | --- | --- | --- | --- | --- | --- | --- | --- | --- | --- | --- | --- | --- | --- | --- | --- | --- | --- | --- |
| CNc1ncnc(Sc2nc(N)nc3nc[nH]c23)c1[N+](=O)[O-] | > 100 | 16.4 | 13.9 | 18.7 | 13 | 5.53 | > 81.2 | 22.2 | > 100 | – | – | – | – | – | – | – | – | – | – | – |
| CCC1(C)C=Cc2c(cc(OC)c3c(=O)c4ccccc4n(C)c23)O1 (centres undefined) | > 10 | > 10 | 2.39 | > 10 | > 10 | > 10 | > 10 | > 10 | > 10 | – | – | – | – | – | – | – | – | – | – | – |
| CN(C)CCCNc1c(O)c2c(c(O)c1Cl)C(=O)C=CC2=O | 3.27 | > 10 | > 10 | 2.82 | 3.71 | 3.07 | 4.67 | 2.85 | > 10 | – | – | – | – | – | – | – | – | – | – | – |
| OC1(c2ccccc2)CC2CCC(C1)N2CCc1ccccc1 (centres undefined) | > 100 | > 100 | > 100 | > 100 | 59.1 | 35.7 | > 100 | > 100 | > 100 | > 100 | – | – | – | – | – | – | – | – | – | – |
| O=c1[nH]c2ccc(C(F)(F)F)cc2nc1-c1ccccc1 | > 100 | > 100 | – | – | > 100 | > 100 | > 100 | > 100 | – | > 100 | – | – | – | – | – | – | – | – | – | – |
| CCOC(=O)C1C(=O)CC(O)(OCC)C(C(=O)OCC)C1c1ccc(OC)cc1 (centres undefined) | > 100 | > 100 | > 100 | > 100 | > 100 | > 100 | > 100 | > 100 | > 100 | > 100 | – | – | – | – | – | – | – | – | – | – |
| Cc1cc2nc3n[nH]c(N)c3nc2cc1C | > 100 | > 100 | > 100 | > 100 | > 100 | > 100 | > 100 | > 100 | > 100 | > 100 | – | – | – | – | – | – | – | – | – | – |
| C=C1C(=O)O[C@@H]2[C@H]3O[C@]3(C)CCC=C(C)CC[C@@H]12 | 83.2 | 26.5 | 91.9 | 45.3 | 34.9 | 31.7 | 163 | 44.3 | 49.1 | – | – | – | – | – | – | – | – | – | – | – |
| CCOc1c2ccsc2c(OCC)c2ccsc12 | 9.84 | 86.2 | > 100 | > 100 | > 100 | > 41.1 | > 100 | > 100 | > 100 | > 100 | – | – | – | – | – | – | – | – | – | – |
| CN(C)c1nc(N(C)C)nc(N(C)C)n1 | > 150 | > 150 | > 150 | > 143 | > 150 | > 150 | > 150 | > 150 | > 150 | > 150 | – | – | – | – | – | – | – | – | – | – |
| CCOC(=O)C1(C(=O)OCC)C[C@]23OCCC(=O)[C@H]2[C@H]2C(=O)OC(C)(C)O[C@]23C1 | > 100 | > 100 | > 100 | > 100 | > 100 | > 100 | > 100 | > 100 | – | > 100 | – | – | – | – | – | – | – | – | – | – |
| CCCC1NC(=O)C(CC(C)C)NC(=O)c2cccc(n2)C(=O)NC(CC(C)C)C(=O)NC(CCC)C(=O)NC(C(=O)OC)CCCCNC1=O (centres undefined) | > 100 | 65.9 | > 100 | > 100 | > 100 | > 100 | > 100 | 78.9 | 71.4 | 65.6 | – | – | – | – | – | – | – | – | – | – |
| CCN(CC)C(=S)SS(=O)(=O)c1ccccc1C(=O)O | > 100 | > 100 | > 100 | > 100 | > 100 | > 100 | > 100 | > 100 | > 100 | > 100 | – | – | – | – | – | – | – | – | – | – |
| CC(=O)OCC1OC(On2ccccc2=S)C(OC(C)=O)C(OC(C)=O)C1OC(C)=O (centres undefined) | > 100 | > 100 | > 100 | > 100 | > 100 | > 100 | > 100 | > 100 | – | – | – | – | – | – | – | – | – | – | – | – |
| CCc1ccc(-c2nnc(COc3ccc(-c4nc5ccc(C)cc5[nH]4)cc3OC)o2)cc1 | 5.75 | 5.83 | 3.17 | 3.53 | 16.2 | 96 | > 100 | 6.66 | 4.28 | 5.22 | 2.33 | 2.07 | 1.63 | 1.74 | 3.57 | 8.39 | 4.63 | 2.36 | 2.01 | 2.08 |
| CNC(=S)/C(=N\Nc1nc[nH]c1C(N)=O)C(N)=S | 41.6 | 99.4 | 18.3 | > 100 | > 100 | 41.1 | > 100 | > 100 | > 33.9 | 0.468 | – | – | – | – | – | – | – | – | – | – |
| CCOC(=O)c1c(C)n(Cc2ccccc2)c(=O)c2ccccc2c(=O)c2c(=O)ccc(=O)c1=2 | > 100 | 41.5 | 34.7 | > 100 | > 100 | > 100 | > 100 | > 100 | > 100 | > 100 | – | – | – | – | – | – | – | – | – | – |
| COc1ccc(/C=C2\C=Cc3ccccc32)cc1OC | > 100 | 64.9 | – | > 100 | > 100 | > 100 | > 100 | > 100 | > 100 | > 100 | – | – | – | – | – | – | – | – | – | – |
| Cc1[nH]c2ncn3nc(C(Cl)(Cl)Cl)nc3c2c1Cc1ccccc1 | > 100 | – | 23.3 | > 100 | > 100 | > 100 | > 100 | > 100 | > 100 | – | – | – | – | – | – | – | – | – | – | – |
| CSC1=N/C(=C\c2ccc(C)cc2)C(=O)N1CN1CCOCC1 | > 100 | > 100 | > 100 | 32.9 | – | > 100 | > 100 | – | > 100 | > 100 | – | – | – | – | – | – | – | – | – | – |
| CN1CCCN2CCN(C)CCN(CC1)CC2 | > 100 | > 100 | > 100 | > 100 | > 100 | > 100 | > 100 | > 100 | – | > 100 | – | – | – | – | – | – | – | – | – | – |
